Test results as given in US10093675B2, “6,8-disubstituted-9-(heterocyclyl)purines, compositions containing these derivatives and their use in cosmetic and medicinal applications” (USTAV EXPERIMENTALNI BOTANIKY AV CR, V.V.I., priority 2014, dated 2018).

Assays:
[1] = system: human diploid fibroblasts (HDF cells; HDF25, HDF45, HDF80); experiment: Inhibition of human cell aging: senescent cells by beta-galactosidase staining; format: cell-based
In short: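 Cells of passages 25, 45 and 80 fixed 5 min at room temperature in 2% formaldehyde/0.2% glutaraldehyde in PBS, then incubated at 37° C with beta-galactosidase substrate. Senescent cells identified by blue staining.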

C. elegans fem-1(hc17) = experiment: Lifespan of C. elegans; format: in vivo; conditions: 100 microM, treated from 4th day of adulthood; DMSO vehiculum 12.98
Excerpt: C. elegans is a standard model of aging. Its relevance for human aging is generally accepted based primarily on molecular similarity in aging mechanisms and evolutionary conservation of several pathways related to health- and life-span including insulin/IGF-I signaling. (Olsen et. al 2006, doi: 10.1196/annals.1354.015) It is used for drug screening campaigns (reviewed e.g. in Kaletta et al. 2006, doi: 10.1038/nrd2031) including those searching for compounds with cytoprotective activity. Compounds with a life-span extending effect in C. elegans and known health benefits in human include resveratrol, ECG and curcumin (Liao et, al 2011, doi: 10.1016/j.mad.2011.07.008; Wood et al. 2004, doi: 10.1038/nature02789; Abbas et al. 2009, doi: 10.1055/s-0028-1088378). The strain used in this experiment was fem-1(hc17). When grown at 25° C. all animals develop into females which prevents further reproduction and contamination of experiment with progeny. Age-synchronized adults (obtained by sodium hypochlorite treatment) were maintained in liquid S-complete medium. […] Living worms (i.e those moving when exposed to intensive light) were counted in a microscope every 2-3 days until the worms reached 22nd day of adulthood. The effects of the compounds on worm life-span were evaluated in software OASIS (Yang et al 2011, doi: 10.1371/journal.pone.002352).

[2] = system: detached leaves of Triticum aestivum cv. Hereward; experiment: Membrane lipid peroxidation (MDA, TBA method) in detached wheat leaves during dark senescence; format: in vivo; conditions: four days in the dark, Control 18.9 (±2.2)
In short: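 Leaf tips from 7-day wheat seedlings were kept with compound or kinetin for four days in the dark. 100 mg tissue was extracted in 80% methanol and heated 30 min at 95 °C with 0.5% TBA/0.1% TCA. MDA came from A532 minus A600, using 155 mM^−1cm^−1.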

[3] = Radical scavenging activity determined by ORAC (Oxygen Radical Absorbance Capacity); format: biochemical; conditions: Mean ± SD (n = 3); net area under the curve relative to trolox, equimolar basis
Description: The ability of compounds to scavenge free radicals in vitro was determined by Oxygen Radical Absorbance Capacity (ORAC) method. Fluorescein (100 μL, […]) and 25 μL of compound solution were added into each working well in a 96-well microplate preincubated at 37° C. Thereafter, 25 μL of 250 mM AAPH was quickly added, microplate was shaken for 5 s and the fluorescence (Ex. 485 nm, Em. 510 nm) was read every 3 min over 90 min by using microplate reader Infinite 200 (TECAN, Switzerland). The net area under the curve was used to express antioxidant activity relative to trolox which was used as a standard.

c1ccc(CNc2ncnc3nc[nH]c23)cc1 [6-benzylaminopurine, reference compound]
SENESCENT CELLS (%) HDF25 ([1]; human diploid fibroblasts passage 25, beta-galactosidase staining): 5% | SENESCENT CELLS (%) HDF45 ([1]; human diploid fibroblasts passage 45, beta-galactosidase staining): 9% | SENESCENT CELLS (%) HDF80 ([1]; human diploid fibroblasts passage 80, beta-galactosidase staining): 45% | restricted mean of life-span (C. elegans fem-1(hc17)): 12.95

CC(C)=CCNc1ncnc2c1nc(NCCN)n2C1CCCCO1 (stereo not shown) [Compound 172, 8-(2-Aminoethylamino)-6-(3-methylbut-2-en-1-ylamino)-9-(tetrahydropyran-2-yl)-9H-purine]
MDA (nmol/g FW) [2]: 10.8 (±0.9) nmol/g FW | ORAC (compound/trolox ratio) [3]: 28.3 ± 1.6

OCCNc1nc2c(NCc3ccco3)ncnc2n1C1CCCCO1 (stereo not shown) [Compound 181, 6-Furfurylamino-8-(2-hydroxyethylamino)-9-(tetrahydropyran-2-yl)-9H-purine]
MDA (nmol/g FW) [2]: 9.5 (±0.5) nmol/g FW | ORAC (compound/trolox ratio) [3]: 78.1 ± 3.9

OCCCNc1nc2c(NCc3ccco3)ncnc2n1C1CCCCO1 (stereo not shown) [Compound 185, 6-Furfurylamino-8-(3-hydroxypropylamino)-9-(tetrahydropyran-2-yl)-9H-purine]
MDA (nmol/g FW) [2]: 10.2 (±1.1) nmol/g FW | ORAC (compound/trolox ratio) [3]: 48.3 ± 2.3
